For 29 molecules, outcome, EC50 and IC50 results are on record in PubChem BioAssay AID179 (DTP/NCI, 2004).

This assay has as its system CEM cells HIV-1 protection, formazan growth assay. The assay is described as follows: NCI AIDS Antiviral Assay. To be noted: for IC50: measured here: growth of uninfected CEM cells. In a few lines: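 Steps: treat uninfected and HIV-1-infected human CEM cells at five drug levels; quantify growth by soluble formazan; retest any compound reaching 50% protection; classify actives from the retest.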

The source made the active and inactive calls.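 How the source made its calls: active means compounds giving half or more protection of infected cells from virus-caused growth loss, again on retest; inactive means the rest.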

As to `Cc1ccc(NC(=O)CC(=O)N2N=C(N(c3ccccc3)c3ccccc3)CC2c2ccccc2)cc1` (stereo not given), the outcome was inactive.

One may read the EC50 as the concentration that produces a half-maximal response. Broadly, the IC50 is the concentration at which inhibition is half-maximal. Take `C/C(=N\NC(=S)N1CCN(c2ccccn2)CC1)c1cccc2cccnc12`: the EC50 was above 45.7 µM and the IC50 came to 0.0417 µM.

As for `Cc1ccc2oc(=O)ccc2c1`, the EC50 was above 427 µM and the IC50 was 174 µM.

Take `CC12OC3(C(O)C1O)C(C(=O)O[C@H]3CO[Si](C)(C)C(C)(C)C)C2S(=O)(=O)c1ccccc1` (stereo not given in full): the result was inactive.

Take `N#Cc1ccc(S(=O)(=O)c2ccc(C#N)cc2)cc1`: the EC50 is above 200 µM and the IC50 is above 200 µM.

In the case of `CC1C/C(=N\N(C)C)C(C#N)(C#N)C1(C#N)C#N` (stereo not given), the EC50 was above 200 µM and the half-inhibitory concentration (IC50) was 6.03 µM.

With `COc1ccc(/C=C2/SC(c3c(O)ccc4ccccc34)N(NC(=O)CCCCCCCCC(=O)NN3C(=O)/C(=C\c4ccc(OC)c(OC)c4)SC3c3c(O)ccc4ccccc34)C2=O)cc1OC` (stereo not given), the EC50 was above 200 µM and the IC50 is 8.51 µM.

In the case of `CCOc1ccc(N2CC(=O)N3CCCCN3C(=O)C2)cc1`, the EC50 was above 200 µM and the concentration for half-maximal inhibition (IC50) was above 200 µM.

As for `O=C1C=CC2O[C@H](c3ccccc3)[C@H](O)C2O1` (stereo not given in full), the EC50 is above 1070 µM and the IC50 worked out at 5.37 µM.

With `CN1C(=O)CNC(=O)c2ncn(C3OC(CO)C(O)C3O)c21` (stereo not given), the EC50 was above 229 µM and the IC50 is above 229 µM.

Regarding `CC(C)OP(=O)(OC(C)C)/C(C#N)=C/c1ccco1`, the EC50 is above 200 µM and the IC50 is above 200 µM.

On to `CC1c2c(cc(OC(=O)c3cccc(S(=O)(=O)F)c3)nc2OC(=O)c2cccc(S(=O)(=O)F)c2)C(=O)N1Cc1ccccc1` (stereo not given), for which the EC50 is above 11.2 µM and the half-inhibitory concentration (IC50) was determined as 1.86 µM.

In the case of `COc1ccc([C@@]2(O)c3c(ccc(O)c3OC)[C@H]2OC)c(OC)c1`, the EC50 is above 15.8 µM and the IC50 is 9.33 µM.

`c1ccc2c(c1)Sc1ccccc1S2`: the EC50 was above 200 µM and the half-maximal inhibitory concentration (IC50) was above 200 µM.

`COC(=O)c1c2oc3c(C(=O)OC)cccc3nc-2cc(N)c1=O`: the result was inactive.

For `CCOC(=O)NC(=O)c1cn(CCCOC(=O)CCCCCCCCC(=O)OCCCn2cc(C(=O)NC(=O)OCC)c(=O)[nH]c2=O)c(=O)[nH]c1=O`, the result was inactive.

On to `CNC(=O)OCc1nc(SC)n(C)c1COC(=O)NC`, for which the EC50 is above 708 µM and the IC50 came out at 309 µM.

As for `O=C(C(=O)C(=O)C(=O)C1C(=O)c2ccccc2C1=O)C(=O)C(=O)C1C(=O)c2ccccc2C1=O`, the result was inactive.

`COc1cc(/C=C2\C(=O)N(Cc3ccccc3)C(c3ccccc3)S2(=O)=O)cc(OC)c1OC` (stereo not given): the EC50 was above 20 µM and the 50% inhibitory concentration (IC50) was determined as 3.31 µM.

As for `CCCCCOC(=S)S`, the EC50 is above 200 µM and the IC50 is above 200 µM.

As to `Cc1c(C2=NN=C(N=Nc3c(O)cccc3O)/C2=C/c2ccccc2)c(=O)n(-c2ccccc2)n1C`, the outcome was inactive.

Turning to `COC1CC(N)C(O)C(CN=[N+]=[N-])O1` (stereo not given), the result was inactive.

On to `O=C1CC2O[C@H](c3ccccc3)OC2CO1` (stereo not given in full), for which the EC50 was above 200 µM and the IC50 came out at 93.3 µM.

With `CCCCCCCCCCCOC(=S)NC(C)C`, the result was inactive.

In the case of `CC(C)(C)CC1=COC(C=O)(CC(C)(C)C)CC1` (stereo not given), the EC50 was above 102 µM and the IC50 was above 102 µM.

On to `c1ccc(COC[C@H]2O[C@@H](c3ccccc3)C[C@@H](OCc3ccccc3)C2OCc2ccccc2)cc1` (stereo not given in full), for which the EC50 is above 200 µM and the IC50 is above 200 µM.

Regarding `CCCCc1ccc(Nc2nc(OC)c3ncn(C4CC(O)C(CO)O4)c3n2)cc1` (stereo not given), the EC50 was above 200 µM and the 50% inhibitory concentration (IC50) is 15.1 µM.

Regarding `O=C(c1cc2c(C(F)(F)F)onc2c2ccccc12)C(F)(F)F`, the EC50 is above 107 µM and the IC50 was found to be 8.32 µM.

`CC(=O)SCCCn1c(=O)n(CCCSC(C)=O)c(=O)n(CCCSC(C)=O)c1=O`: the EC50 is above 200 µM and the IC50 came to 12.3 µM.
